Test results published in paper PMC3523469 (Investigational New Drugs, 2012).
Like-named read-outs stand apart in the source and are kept apart here.

Assay type: in vivo, Japanese patients
[1] = across all dose levels, 13 patients

## COc1cc2ncnc(Nc3ccc(F)c(Cl)c3)c2cc1NC(=O)/C=C/CN1CCCCC1 [dacomitinib, Dacomitinib]
30 mg QD (n = 3), G3
  Dry skin, number of patients with treatment-related AE: 0
  ECG QT prolonged, number of patients with treatment-related AE: 0
  Edema, number of patients with treatment-related AE: 0
  Fatigue, number of patients with treatment-related AE: 0
  Hematuria, number of patients with treatment-related AE: 0
  Hypertrichosis, number of patients with treatment-related AE: 0
  Leukopenia, number of patients with treatment-related AE: 0
  Nausea, number of patients with treatment-related AE: 0
  Palmar–plantar erythrodysesthesia, number of patients with treatment-related AE: 0
  Paronychia, number of patients with treatment-related AE: 0
  Proteinuria, number of patients with treatment-related AE: 0
  Rash, number of patients with treatment-related AE: 0
  Skin fissures, number of patients with treatment-related AE: 0
  Stomatitis, number of patients with treatment-related AE: 0
  Weight decreased, number of patients with treatment-related AE: 0
45 mg QD (n = 7), All
  Alanine aminotransferase increased, number of patients with treatment-related AE: 2
  Aspartate aminotransferase increased, number of patients with treatment-related AE: 2
  Blood bilirubin increased, number of patients with treatment-related AE: 2
  Cheilitis, number of patients with treatment-related AE: 2
  Conjunctivitis, number of patients with treatment-related AE: 3
  Decreased appetite, number of patients with treatment-related AE: 2
  Diarrhea, number of patients with treatment-related AE: 7
  Dry skin, number of patients with treatment-related AE: 5
  ECG QT prolonged, number of patients with treatment-related AE: 0
  Edema, number of patients with treatment-related AE: 2
  Fatigue, number of patients with treatment-related AE: 5
  Hematuria, number of patients with treatment-related AE: 2
  Hypertrichosis, number of patients with treatment-related AE: 2
  Leukopenia, number of patients with treatment-related AE: 3
  Nausea, number of patients with treatment-related AE: 2
  Palmar–plantar erythrodysesthesia, number of patients with treatment-related AE: 2
  Paronychia, number of patients with treatment-related AE: 6
  Proteinuria, number of patients with treatment-related AE: 3
  Rash, number of patients with treatment-related AE: 7
  Skin fissures, number of patients with treatment-related AE: 2
  Stomatitis, number of patients with treatment-related AE: 5
  Weight decreased, number of patients with treatment-related AE: 2
45 mg QD (n = 7), G1
  Alanine aminotransferase increased, number of patients with treatment-related AE: 0
  Aspartate aminotransferase increased, number of patients with treatment-related AE: 0
  Blood bilirubin increased, number of patients with treatment-related AE: 0
  Cheilitis, number of patients with treatment-related AE: 2
  Conjunctivitis, number of patients with treatment-related AE: 3
  Decreased appetite, number of patients with treatment-related AE: 0
  Diarrhea, number of patients with treatment-related AE: 4
  Dry skin, number of patients with treatment-related AE: 5
  ECG QT prolonged, number of patients with treatment-related AE: 0
  Edema, number of patients with treatment-related AE: 1
  Fatigue, number of patients with treatment-related AE: 1
  Hematuria, number of patients with treatment-related AE: 2
  Hypertrichosis, number of patients with treatment-related AE: 2
  Leukopenia, number of patients with treatment-related AE: 1
  Nausea, number of patients with treatment-related AE: 1
  Palmar–plantar erythrodysesthesia, number of patients with treatment-related AE: 0
  Paronychia, number of patients with treatment-related AE: 1
  Proteinuria, number of patients with treatment-related AE: 2
  Rash, number of patients with treatment-related AE: 1
  Skin fissures, number of patients with treatment-related AE: 1
  Stomatitis, number of patients with treatment-related AE: 4
  Weight decreased, number of patients with treatment-related AE: 0
45 mg QD (n = 7), G2
  Alanine aminotransferase increased, number of patients with treatment-related AE: 1
  Aspartate aminotransferase increased, number of patients with treatment-related AE: 1
  Blood bilirubin increased, number of patients with treatment-related AE: 1
  Cheilitis, number of patients with treatment-related AE: 0
  Conjunctivitis, number of patients with treatment-related AE: 0
  Decreased appetite, number of patients with treatment-related AE: 1
  Diarrhea, number of patients with treatment-related AE: 3
  Dry skin, number of patients with treatment-related AE: 0
  ECG QT prolonged, number of patients with treatment-related AE: 0
  Edema, number of patients with treatment-related AE: 1
  Fatigue, number of patients with treatment-related AE: 4
  Hematuria, number of patients with treatment-related AE: 0
  Hypertrichosis, number of patients with treatment-related AE: 0
  Leukopenia, number of patients with treatment-related AE: 2
  Nausea, number of patients with treatment-related AE: 1
  Palmar–plantar erythrodysesthesia, number of patients with treatment-related AE: 2
  Paronychia, number of patients with treatment-related AE: 5
  Proteinuria, number of patients with treatment-related AE: 1
  Rash, number of patients with treatment-related AE: 4
  Skin fissures, number of patients with treatment-related AE: 1
  Stomatitis, number of patients with treatment-related AE: 1
  Weight decreased, number of patients with treatment-related AE: 2
45 mg QD (n = 7), G3
  Alanine aminotransferase increased, number of patients with treatment-related AE: 1
  Aspartate aminotransferase increased, number of patients with treatment-related AE: 1
  Blood bilirubin increased, number of patients with treatment-related AE: 1
  Cheilitis, number of patients with treatment-related AE: 0
  Conjunctivitis, number of patients with treatment-related AE: 0
  Decreased appetite, number of patients with treatment-related AE: 1
  Diarrhea, number of patients with treatment-related AE: 0
  Dry skin, number of patients with treatment-related AE: 0
  ECG QT prolonged, number of patients with treatment-related AE: 0
  Edema, number of patients with treatment-related AE: 0
  Fatigue, number of patients with treatment-related AE: 0
  Hematuria, number of patients with treatment-related AE: 0
  Hypertrichosis, number of patients with treatment-related AE: 0
  Leukopenia, number of patients with treatment-related AE: 0
  Nausea, number of patients with treatment-related AE: 0
  Palmar–plantar erythrodysesthesia, number of patients with treatment-related AE: 0
  Paronychia, number of patients with treatment-related AE: 0
  Proteinuria, number of patients with treatment-related AE: 0
  Rash, number of patients with treatment-related AE: 2
  Skin fissures, number of patients with treatment-related AE: 0
  Stomatitis, number of patients with treatment-related AE: 0
  Weight decreased, number of patients with treatment-related AE: 0
45 mg dosing cohort
  device-related infection, treatment-related grade 3 AE, number: 1
  treatment-related grade 3 AEs, number: seven
15, 30, 45 mg QD, single dose to day 21 of cycle 1, 12 patients evaluated
  Dose-limiting toxicity (DLT): no DLTs observed at any dose
Japanese patients with advanced solid tumors
  clinically recommended phase II dose (RP2D): 45 mg QD
Total (N = 13)
  Alanine aminotransferase increased, % of patients with treatment-related AE: 15%
  Alanine aminotransferase increased, number of patients with treatment-related AE: 2
  Aspartate aminotransferase increased, % of patients with treatment-related AE: 15%
  Aspartate aminotransferase increased, number of patients with treatment-related AE: 2
  Blood bilirubin increased, % of patients with treatment-related AE: 15%
  Blood bilirubin increased, number of patients with treatment-related AE: 2
  Cheilitis, % of patients with treatment-related AE: 38%
  Cheilitis, number of patients with treatment-related AE: 5
  Conjunctivitis, % of patients with treatment-related AE: 31%
  Conjunctivitis, number of patients with treatment-related AE: 4
  Decreased appetite, % of patients with treatment-related AE: 23%
  Decreased appetite, number of patients with treatment-related AE: 3
  Diarrhea, % of patients with treatment-related AE: 92%
  Diarrhea, number of patients with treatment-related AE: 12
  Dry skin, % of patients with treatment-related AE: 61.5%
  Dry skin, number of patients with treatment-related AE: 8
  ECG QT prolonged, % of patients with treatment-related AE: 15%
  ECG QT prolonged, number of patients with treatment-related AE: 2
  Edema, % of patients with treatment-related AE: 15%
  Edema, number of patients with treatment-related AE: 2
  Fatigue, % of patients with treatment-related AE: 46%
  Fatigue, number of patients with treatment-related AE: 6
  Hematuria, % of patients with treatment-related AE: 15%
  Hematuria, number of patients with treatment-related AE: 2
  Hypertrichosis, % of patients with treatment-related AE: 15%
  Hypertrichosis, number of patients with treatment-related AE: 2
  Leukopenia, % of patients with treatment-related AE: 23%
  Leukopenia, number of patients with treatment-related AE: 3
  Nausea, % of patients with treatment-related AE: 23%
  Nausea, number of patients with treatment-related AE: 3
  Palmar–plantar erythrodysesthesia, % of patients with treatment-related AE: 38%
  Palmar–plantar erythrodysesthesia, number of patients with treatment-related AE: 5
  Paronychia, % of patients with treatment-related AE: 69%
  Paronychia, number of patients with treatment-related AE: 9
  Proteinuria, % of patients with treatment-related AE: 23%
  Proteinuria, number of patients with treatment-related AE: 3
  Rash, % of patients with treatment-related AE: 100%
  Rash, number of patients with treatment-related AE: 13
  Skin fissures, % of patients with treatment-related AE: 15%
  Skin fissures, number of patients with treatment-related AE: 2
  Stomatitis, % of patients with treatment-related AE: 61.5%
  Stomatitis, number of patients with treatment-related AE: 8
  Weight decreased, % of patients with treatment-related AE: 23%
  Weight decreased, number of patients with treatment-related AE: 3
[1]
  diarrhea, all-causality AE, number of patients: 12
  dry skin, all-causality AE, number of patients: 8
  paronychia, all-causality AE, number of patients: 9
  rash, all-causality AE, number of patients: 13
  stomatitis, all-causality AE, number of patients: 8
All cohorts, all cycles
  grade 4 or 5 treatment-related adverse events: ^aThere were no grade 4 or 5 treatment-related adverse events
All dose levels
  grade 4 AEs: No grade 4 AEs were reported
All in the 45 mg dosing cohort
  patients requiring temporary discontinuations due to TRAEs, number: five
One patient, 15 mg cohort, day 1 cycle 1, grade 1
  prolonged QTcF interval, change from baseline: 26 ms
overall
  treatment-related grade 3 AEs, number: eight
single-dose administration phase
  AEs observed in ≥1 patient during the single-dose administration phase: rash and diarrhea
